This is an account of results in patent publication US8703934B2, “Substituted 4-amino-3,5-dicyano-2-thiopyridines and use thereof” (Bayer Intellectual Property GmbH, priority 2006, dated 2014).

Holding throughout (assay type): cell-based
One test has as its target T1, adenosine A2a receptor (Homo sapiens, UniProt P29274).
T1 construct: expressed in transfected cells; host or cells: CHO (Chinese Hamster Ovary)
Kind of test: Indirect determination of adenosine agonism by way of gene expression (luciferase, CHO cells), A2a. To be noted: CHO cells stably transfected with A2a receptor cDNA; 50% of maximum luciferase stimulation. The text has this:
(§1) B-1. Indirect Determination of the Adenosine Agonism by Way of Gene Expression
(§2) Cells of the CHO (Chinese Hamster Ovary) permanent cell line are transfected stably with the cDNA for the adenosine receptor subtypes A1, A2a and A2b. The adenosine A1 receptors are coupled to the adenylate cyclase by way of G, proteins, while the adenosine A2a and A2b receptors are coupled by way of Gs proteins. In correspondence with this, the formation of cAMP in the cell is inhibited or stimulated, respectively. After that, expression of the luciferase is modulated by way of a cAMP-dependent promoter. The luciferase test is optimized, with the aim of high sensitivity and reproducibility, low variance and good suitability for implementation on a robot system, by varying several test parameters, such as cell density, duration of the growth phase and the test incubation, forskolin concentration and medium composition. The following test protocol is used for pharmacologically characterizing cells and for the robot-assisted substance screening:
(§3) The stock cultures are grown, at 37° C. and under 5% CO2, in DMEM/F12 medium containing 10% FCS (fetal calf serum) and in each case split 1:10 after 2-3 days. The test cultures are seeded in 384-well plates with 2000 cells per well and grown at 37° C. for approx. 48 hours. The medium is then replaced with a physiological sodium chloride solution (130 mM sodium chloride, 5 mM potassium chloride, 2 mM calcium chloride, 20 mM HEPES, 1 mM magnesium chloride hexahydrate, 5 mM sodium bicarbonate, pH 7.4). The substances to be tested, which are dissolved in DMSO, are pipetted into the test cultures (maximum final concentration of DMSO in the test mixture: 0.5%) in a dilution series of from 5×10^−11M to 3×10^−6M (final concentration). 10 minutes later, forskolin is added to the A1 cells and all the cultures are subsequently incubated at 37° C. for four hours. After that, 35 μl of a solution which is composed of 50% lysis reagent (30 mM disodium hydrogenphosphate, 10% glycerol, 3% TritonX100, 25 mM TrisHCl, 2 mM dithiotreitol (DTT), pH 7.8) and 50% luciferase substrate solution (2.5 mM ATP, 0.5 mM luciferin, 0.1 mM coenzyme A, 10 mM tricine, 1.35 mM magnesium sulfate, 15 mM DTT, pH 7.8) are added to the test cultures, which are shaken for approx 1 minute and the luciferase activity is measured using a camera system. The EC50 values are determined, i.e., the concentrations at which 50% of the luciferase answer is inhibited in the case of the A1 cell, and, respectively, 50% of the maximum stimulation with the corresponding substance is achieved in the case of the A2b and A2a cells. […] Pharmacol., 357 (1998), 1-9).

In a further test the target is T2, adenosine A2b receptor (Homo sapiens, UniProt P29275).
T2 construct: expressed in transfected cells; host or cells: CHO (Chinese Hamster Ovary)
T2 sequence (P29275 1-332): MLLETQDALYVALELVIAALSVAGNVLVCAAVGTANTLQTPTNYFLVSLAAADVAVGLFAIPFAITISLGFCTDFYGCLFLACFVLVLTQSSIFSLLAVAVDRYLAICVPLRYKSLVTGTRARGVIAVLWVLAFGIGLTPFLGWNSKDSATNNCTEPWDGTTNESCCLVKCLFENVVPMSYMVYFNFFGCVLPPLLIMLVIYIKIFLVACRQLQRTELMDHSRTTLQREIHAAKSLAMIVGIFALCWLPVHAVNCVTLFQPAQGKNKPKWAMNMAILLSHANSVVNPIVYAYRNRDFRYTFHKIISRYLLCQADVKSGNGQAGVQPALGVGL
The experiment in a line: Indirect determination of adenosine agonism by way of gene expression (luciferase, CHO cells), A2b. Conditions: CHO cells stably transfected with A2b receptor cDNA; 50% of maximum luciferase stimulation.
Source text: as §1, §2, §3

In a further test the target is T3, adenosine A1 receptor (Homo sapiens, UniProt P30542).
T3 construct: expressed in transfected cells; host or cells: CHO (Chinese Hamster Ovary)
T3 sequence (P30542 1-326): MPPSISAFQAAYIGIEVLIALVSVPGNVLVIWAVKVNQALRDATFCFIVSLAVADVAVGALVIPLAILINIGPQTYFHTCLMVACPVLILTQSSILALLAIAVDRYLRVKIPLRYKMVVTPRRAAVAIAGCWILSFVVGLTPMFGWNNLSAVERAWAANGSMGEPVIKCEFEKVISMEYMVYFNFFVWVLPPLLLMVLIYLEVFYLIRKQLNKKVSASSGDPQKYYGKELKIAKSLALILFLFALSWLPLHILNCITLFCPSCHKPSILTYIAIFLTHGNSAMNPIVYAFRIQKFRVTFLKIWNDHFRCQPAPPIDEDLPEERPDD
Kind of test: Indirect determination of adenosine agonism by way of gene expression (luciferase, CHO cells), A1. Conditions: CHO cells stably transfected with A1 receptor cDNA; 1 μM forskolin; 50% inhibition of luciferase answer.
Source text: as §1, §2, §3

T1 sequence (P29274 whole entry): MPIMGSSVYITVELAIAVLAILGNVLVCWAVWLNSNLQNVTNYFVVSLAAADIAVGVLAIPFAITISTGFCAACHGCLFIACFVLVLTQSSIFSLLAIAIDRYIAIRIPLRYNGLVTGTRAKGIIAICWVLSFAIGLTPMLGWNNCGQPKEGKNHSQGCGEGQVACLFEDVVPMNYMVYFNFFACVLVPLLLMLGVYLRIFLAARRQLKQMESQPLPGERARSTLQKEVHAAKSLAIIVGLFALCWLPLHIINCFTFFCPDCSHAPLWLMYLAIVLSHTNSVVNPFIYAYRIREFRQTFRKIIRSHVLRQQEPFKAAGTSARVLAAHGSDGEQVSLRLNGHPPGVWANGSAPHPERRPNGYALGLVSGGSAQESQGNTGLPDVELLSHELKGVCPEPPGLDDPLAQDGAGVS

Turning to `N#Cc1c(N)nc(SCc2csc(-c3ccc(Cl)cc3)n2)c(C#N)c1N1CCC(O)CC1` [Example 1, 2-Amino-6-({[2-(4-chlorophenyl)-1,3-thiazol-4-yl]methyl}thio)-4-(4-hydroxypiperidin-1-yl)pyridine-3,5-dicarbonitrile], the EC50 (usually the midpoint of the concentration-response curve) on adenosine A2a receptor is 686 nM; at adenosine A2b receptor it was 116 nM; at adenosine A1 receptor, 1.3 nM.
On to `N#Cc1c(N)nc(SCc2csc(-c3ccc(Cl)cc3)n2)c(C#N)c1N1CCCCC1` [Example 2], for which the EC50 on adenosine A2a receptor was found to be 385 nM; at adenosine A2b receptor, 44 nM; on adenosine A1 receptor, 0.5 nM.
The matching figures for `CN1CCN(c2c(C#N)c(N)nc(SCc3csc(-c4ccc(Cl)cc4)n3)c2C#N)CC1` [Example 4]: > 3000 nM, > 3000 nM and 12 nM.
For `N#Cc1c(N)nc(SCc2csc(Nc3ccc(F)cc3)n2)c(C#N)c1N1CCCCC1` [Example 6], the EC50 is 1810 nM on adenosine A2a receptor, > 3000 nM on adenosine A2b receptor and 45 nM at adenosine A1 receptor.
For the molecule `N#Cc1c(N)nc(SCc2ccc[n+]([O-])c2)c(C#N)c1N1CCCCC1` [Example 27], the half-maximal effective concentration (EC50) is 63 nM at adenosine A2a receptor, 0.9 nM on adenosine A2b receptor and 0.3 nM at adenosine A1 receptor.
The matching figures for `N#Cc1c(SCc2csc(-c3ccc(Cl)cc3)n2)nc(N2CCC(O)C2)c(C#N)c1N1CCCCC1` (stereo not drawn) [Example 30]: 1030 nM, 56 nM and 5.7 nM.
The matching figures for `N#Cc1cnc(SCc2csc(-c3ccc(Cl)cc3)n2)c(C#N)c1N1CCCCC1` [Example 34, 2-({[2-(4-Chlorophenyl)-1,3-thiazol-4-yl]methyl}thio)-4-(piperidin-1-yl)pyridine-3,5-dicarbonitrile]: > 3000 nM, > 3000 nM and 46 nM.
As to `COc1nc(SCc2csc(-c3ccc(Cl)cc3)n2)c(C#N)c(N2CCCCC2)c1C#N` [Example 35, 2-({[2-(4-Chlorophenyl)-1,3-thiazol-4-yl]methyl}thio)-6-methoxy-4-(piperidin-1-yl)pyridine-3,5-dicarbonitrile], the EC50 at adenosine A2a receptor is > 3000 nM; at adenosine A2b receptor, > 3000 nM; on adenosine A1 receptor, 8.6 nM.
On to `N#Cc1c(N)nc(SCc2coc(-c3ccc(Cl)cc3)n2)c(C#N)c1N1CCCCC1` [Example 37, 2-Amino-6-({[2-(4-chlorophenyl)-1,3-oxazol-4-yl]methyl}sulfanyl)-4-(piperidin-1-yl)pyridine-3,5-dicarbonitrile], for which the EC50 at adenosine A2a receptor came out at 357 nM; on adenosine A2b receptor, 403 nM; on adenosine A1 receptor, 2.2 nM.
